Experimental data as given in US8741592B2, “Methods of screening an agent for an activity in an isolated eye of a teleost” (Phylonix Pharmaceuticals, Inc., priority 2007, dated 2014).
Where “and” joins values, the source holds several entries; their conditions need not be identical. Equal entries are not always repeated. Entries after “also recorded” stand apart in the source; their conditions may differ.

Key:
[1] = system: CoCl2 induced CNV; assay: Effect of anti-angiogenic drugs on CoCl2 induced CNV, visual assessment of Phy-V stained whole zebrafish; type: in vivo; conditions: for Mean ± SE (% CNV) / % CNV (per experiment) / CNV zebrafish (number per experiment): co-treatment with 0.1 mg/ml CoCl2, 24 hpf to 5 dpf; for abnormal neovascularization in the choroidal vessel plexus: co-treatment with CoCl2, 5 dpf zebrafish
Procedure: 24 hpf zebrafish were treated with 0.1 mg/ml CoCl2 continuously for 4 days, and various concentrations of Celebrex or Genistein were incubated with the zebrafish. At the 5 dpf stage, zebrafish were fixed and stained with zebrafish angiogenic-vessel-specific antibody, Phy-V. Several treatment strategies were assessed: (1) pre-treatment (high concentration of drug added for 4 hours and withdrawn before CoCl2 induction); (2) co-treatment (drugs were co-treated with CoCl2); and (3) post-treatment (drugs were added 24 hours after CoCl2).
The drug effects on CNV zebrafish were assessed visually using microscopic examination of Phy-V stained whole zebrafish. % CNV inhibition was calculated by dividing the total number of CNV zebrafish by the total number of zebrafish per experiment (Tables II and III). The percentage of CNV zebrafish was lowest after co-treatment with Celebrex.
Celebrex or Genistein Co-Treatment. Celebrex and Genistein dissolved in DMSO were added directly to fish water, the final concentration of DMSO for Celebrex and Genistein was 0.8%. For pre-treatment, 24 hpf zebrafish were incubated with high concentrations of each drug at 28° C. for 4 hours; the drugs were washed off and zebrafish were treated with 0.1 mg/ml CoCl2. For co-treatment, each drug was added simultaneously with 0.1 mg/ml CoCl2. For post-treatment, each drug was added 24 hours after CoCl2 addition. After drug treatment, zebrafish were washed and processed for whole mount immunochemical staining
Whole Mount Immunofluorescence Staining. Zebrafish were fixed by Dent's fixative (DMSO/methanol=⅓) and processed for whole mount immunochemical staining following standard procedures (Westerfield, 1993, supra). Alexa 488 conjugated Phy-V antibody (Phylonix), which specifically labels activated endothelial cells, was used to stain zebrafish, and followed by examination by fluorescence microscopy.

[2] = system: CoCl2 induced CNV; assay: Eye specific angiogenesis ELISA (eZ-CNV ELISA) on isolated eyes; type: in vivo, zebrafish; conditions: co-treatment with 0.1 mg/ml CoCl2 for 4 days, 4 eyes/well
Procedure: Calculation of Drug Effects. To reduce the variability contributed by substrate and to compare results from different assays performed on different days, drug effects were normalized to % inhibition on EC proliferation. Chemiluminescent signal (CU) in each well (containing 4 eyes) was measured and used to calculate drug effect. […] In addition, to estimate non-specific background signal, 24 C were processed without antibody incubation; the mean value of which was subtracted from each CU measurement. Mean CU of D was used as 100% control. Drug effect was calculated following formula (a). %Inhibition=(1−(CU(drug treated)/CU(control)))×100% (a)
Based on the visual assessment above, co-treatment chosen as the treatment method to investigate the effects of the anti-angiogenic drugs Celebrex and Genistein in CoCl2 induced CNV in zebrafish using the eZ-CNV™ ELISA. Drug effects were calculated using the method described in Materials and Methods, infra. […] Based on the dose response curve, the optimal concentration for Celebrex was 20 μM and for Genistein was 0.0001 μM.
Methods for Dissociating Eyes from Whole Zebrafish. Zebrafish were processed for whole mount immunochemical staining with either Alexa 488 or HRP conjugated Phy-V following standard procedures. After extensive washing, stained zebrafish were incubated with 150 U/ml collagenase at 37° C. for 45 minutes; eyes were then dissociated from the whole zebrafish by gentle pipetting.
Eye Specific Angiogenesis ELISA (eZ-CNV™ ELISA). Isolated eyes of whole mount Phy-V-HRP stained zebrafish were placed in 96-well microplates, 4 eyes/well; 150 μl/well PS-atto (Lumigen, Southfield, Mich.), chemiluminescence HRP substrate, was added and the chemiluminescence signal from the enzymatic product was detected by Synergy HT microplate reader (BioTeK Instruments, Inc., Winooski, Vt.).

[3] = system: zebrafish eye (retina); type: in vivo
[4] = system: PEDF; design: key: ↑: Up arrows indicate up-regulation; ↓: down arrows indicate down-regulation; —: horizontal line indicates no change; conditions: zebrafish, in vivo
[5] = system: HIF-1α; design: key: ↑: Up arrows indicate up-regulation; ↓: down arrows indicate down-regulation; —: horizontal line indicates no change; conditions: zebrafish, in vivo
[6] = system: PGK; design: key: ↑: Up arrows indicate up-regulation; ↓: down arrows indicate down-regulation; —: horizontal line indicates no change; conditions: zebrafish, in vivo
[7] = system: zebrafish; conditions: in vivo
[8] = system: VEGF; design: key to VEGF expression (RT-PCR): ↑: Up arrows indicate up-regulation; ↓: down arrows indicate down-regulation; —: horizontal line indicates no change; conditions: zebrafish, in vivo
[9] = system: choroidal neovascularization (CNV) in zebrafish; assay: Hypoxia-induced choroidal neovascularization (CNV) model, Phy-V staining of treated zebrafish; type: in vivo
[10] = system: IGF; design: key: ↑: Up arrows indicate up-regulation; ↓: down arrows indicate down-regulation; —: horizontal line indicates no change; conditions: zebrafish, in vivo
[11] = CoCl2 + 20 μM Celebrex-treated 5 dpf zebrafish

## Cc1ccc(-c2cc(C(F)(F)F)nn2-c2ccc(S(N)(=O)=O)cc2)cc1 [Celebrex]
[1]; Celebrex 10 μM
  Mean ± SE (% CNV): 37.0 ± 16.1%
[1]; Celebrex 15 μM
  Mean ± SE (% CNV): 22.1 ± 12.4%
[1]; Celebrex 20 μM
  % CNV (per experiment): 0% and 10.0%
  Mean ± SE (% CNV): 3.3 ± 3.3%
[1]
  abnormal neovascularization in the choroidal vessel plexus: prevented abnormal neovascularization
[1]; post-treatment, drug added 24 hours after CoCl2
  inhibition of CoCl2 induced CNV after post-treatment: limited inhibition
[1]; pre-treatment, high concentration of drug 4 hours, withdrawn before CoCl2 induction
  CNV after pre-treatment: low percentage of CNV zebrafish, however, the CNV defects were severe
[2]
  dose response in eZ-CNV ELISA: typical dose response curve
  optimal concentration based on the dose response curve: 20 µM
[3]; [11]
  effect on eye development: did not delay eye development
  retinal structure: normal 5 layer structure with no vessels present in the retina

## [Cl-].[Cl-].[Co+2] [CoCl2]
[4]
  PEDF expression (RT-PCR): —
[5]
  HIF-1α expression (RT-PCR): ↑ and ↓ and —
[6]
  PGK expression (RT-PCR): —
[3]; zebrafish, in vivo
  retinal structure / vessels in the retina: abnormal vessels formed in the retina; also recorded: abnormal retinal structure
[7]
  lethality: instantaneous death
  zebrafish dying: 100%
[8]
  VEGF expression (RT-PCR): — and ↑
  VEGF expression (RT-PCR), in words: Up-regulation
[9]; zebrafish, in vivo
  frequency or severity of CNV: did not increase the frequency or severity of CNV
  number of treated zebrafish exhibiting CNV specific phenotype: 64
  treated zebrafish exhibiting CNV specific phenotype: 63.6±11.1%
  vessel growth: did not stimulate vessel growth
[10]
  IGF expression (RT-PCR): —

## O=c1c(-c2ccc(O)cc2)coc2cc(O)cc(O)c12 [Genistein]
[1]; Genistein 0.0001 μM
  Mean ± SE (% CNV): 20.8%
[1]; Genistein 0.001 μM
  % CNV (per experiment): 36.8% and 39.1%
  CNV zebrafish (number per experiment): 7 and 9
  Mean ± SE (% CNV): 38.0%
[1]; Genistein 0.01 μM
  % CNV (per experiment): 23.5%
  CNV zebrafish (number per experiment): 4
  Mean ± SE (% CNV): 23.5%
[1]
  abnormal neovascularization in the choroidal vessel plexus: prevented abnormal neovascularization
[2]
  dose response in eZ-CNV ELISA: only showed preventative effects at a low concentration
  optimal concentration based on the dose response curve: 0.0001 µM

## CC(C)(S)[C@@H](N)C(=O)O [Penicillamine]
[9]; 0.01 μM Penicillamine from 24 hpf, at 5 dpf
  CNV: CNV was observed
[9]; 0.01 μM Penicillamine treatment at the 24 hpf stage
  angiogenesis: stimulated angiogenesis throughout the zebrafish
[9]; Penicillamine treatment
  zebrafish developing CNV compared with CoCl2 treatment: Fewer zebrafish developed CNV
